Data published in patent US6410790B1, “3-amin3-arylpropan-1-ol compounds, their preparation and use” (priority 1999, dated 2002).

Assays:
NA transporter = molecular target: T1, NA transporter (Rattus norvegicus, UniProt Q63380); test: synaptosomal noradrenaline uptake inhibition (NA uptake inhibition); assay type: biochemical; details: for inhibition at 1 µM: read-out: NA Uptake Inhibition at 1 μM, 1 μM in the assay, synaptosomes from rat hypothalamus; for NA Uptake Inhibition at 1 μM: 1 μM in the assay, synaptosomes from rat hypothalamus
T1 construct: synaptosomes are isolated fresh from rat brains; from tissue; host or cells: rat hypothalamus synaptosomes (P2 fraction)
T1 sequence (Q63380 1-617): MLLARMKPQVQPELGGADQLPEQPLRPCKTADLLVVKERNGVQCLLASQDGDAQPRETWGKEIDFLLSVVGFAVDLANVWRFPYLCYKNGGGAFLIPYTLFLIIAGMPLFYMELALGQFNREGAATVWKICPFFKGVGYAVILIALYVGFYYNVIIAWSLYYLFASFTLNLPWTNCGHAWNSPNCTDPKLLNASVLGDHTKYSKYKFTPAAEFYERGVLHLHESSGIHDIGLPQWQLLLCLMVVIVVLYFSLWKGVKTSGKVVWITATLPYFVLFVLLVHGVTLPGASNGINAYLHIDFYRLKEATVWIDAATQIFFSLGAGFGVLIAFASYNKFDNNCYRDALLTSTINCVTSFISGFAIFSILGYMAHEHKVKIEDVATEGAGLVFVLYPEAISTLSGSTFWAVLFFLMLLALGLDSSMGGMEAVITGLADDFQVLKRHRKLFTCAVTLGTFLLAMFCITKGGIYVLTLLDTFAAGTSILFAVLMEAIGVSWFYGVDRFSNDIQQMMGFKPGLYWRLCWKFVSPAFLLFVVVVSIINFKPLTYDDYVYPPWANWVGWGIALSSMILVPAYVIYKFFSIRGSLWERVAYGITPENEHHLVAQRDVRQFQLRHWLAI
Experimental: In order to carry out these in vitro studies, synaptosomes are isolated fresh from rat brains. In each case a so-called “P2” fraction is used, which is prepared according to the protocol of Gray and Whittaker (E. G. Gray and V. P. Whittaker (1962) J. Anat. 76, 79-88).
(in each case N=4, i.e. mean values±SEM from 4 independent series of experiments that were carried out in the form of triple parallel experiments).
(§1) For this purpose IC50 values are obtained, which can be converted to inhibitor constants (Ki) according to the “Cheng-Prusoff equation” (Y. C. Clieng and W. H. Prusoff (1973) Biochem. Pharmacol. 22, 3099-3108). The IC50 values were obtained by means of the computer program “Figure P” (version 6.0, Biosoft, Cambridge, England). Km values were calculated according to Lineweaver and Burk (H. Lineweaver and D. Burk (1934) J. Am. Chem. Soc. 56, 658-666). The “Ligand” computer program (version 4, Biosoft, England) was used to obtain Ken values.

[1] = tested on: phenylquinone-induced writhing reaction; test: phenylquinone-induced writhing test in mice; assay type: in vivo; details: male NMRI mice, phenylquinone i.p. 10 minutes later; for inhibition in vivo at 10 mg/kg: Mus musculus, iv, 10 min, 10 mg/kg intravenously
Experimental: Analgesic Effect in the Writhing Test in Mice
The analgesic effect was investigated in the phenylquinone-induced writhing test in mice (as modified by I. C. Hendershot and J. Forsaith (1959) J. Pharmacol. Exp. Ther. 125, 237-240). Male NMRI mice weighing 25 to 30 g were used for the test. Groups of 10 animals each received by intraperitoineal application, for each substance dose, 0.3 ml/mouse of a 0.02% aqueous solution of phenylquinone (phenylbenzoquinone, Sigma Company, Deisenhofen; solution prepared with addition of 5% of ethanol and kept in a water bath at 45° C.) 10 minutes after intravenous administration of the test substances. The animals were placed individually in observation cages. The number of pain-induced stretching movements (so-called writhing reactions=straightening of the body together with stretching of the rear extremities) was measured by means of a push-button counter 5 to 20 minutes after administration of the phenylquinone. Animals that had received only physiological saline solution served as controls. All substances were tested in the standard dose of 10 mg/kg. The percentage inhibition (% inhibition) of the writhing reaction produced by a substance was calculated according to the following formula: [formula]

[2] = tested on: benzothiazepine binding site of the L-type calcium channel; test: Diltiazem binding, L calcium channel; parameters: species or system rat; details: for Diltiazem Binding at 10 μM: percentage inhibition, [3H]-cis-(+)-diltiazem 5 nM, rat cerebral cortex membranes
Experimental: Binding Investigations in the L Calcium Channel
Benzothiazepine Binding Site (Diltiazem Binding)
The biological membrane material was isolated from the rat cerebral cortex. [^3H]-cis-(+)-diltiazem (5 nM in the assay) was used as ligand. The material was incubated for 20 minutes at 25° C. The radioactivity that is measured in the presence of (±)-diltiazem (10^−6 M in the assay) is defined as non-specific binding. After completion of incubation the non-bound fraction of the radioactive ligand is separated by means of a filtration process using Whatman Glasfiber GF/B membranes. The membranes are washed and the radioactivity is then measured using a β-counter. The method is based on the details published by Schoemaker and Langer (H. Schoemaker and S. Z. Langer (1985) Eur. J. Pharmacol. 111, 273-277).
as §1

[3] = tested on: binding site 2 of the sodium channel; test: BTX binding, sodium channel; details: rat cerebral cortex synaptosomes; for BTX Binding at 10 μM: percentage inhibition, [3H]-batrachotoxin A20 α-benzoate 10 nM
Experimental: Binding Investigations in the Sodium Channel
Binding Site 2 (BTX Binding)
The binding site 2 of the sodium channel is the so-called batrachotoxin (BTX) binding site. [^3H]-batrachlotoxin A20 α-benzoate (10 nM in the assay) was used as ligand. These ion channel particles (synaptosomes) were concentrated from rat cerebral cortex according to the procedure of Gray and Whittaker (E. G. Gray and V. P. Whittaker (1962) J. Anat. 76, 79-88). The radioactivity that is measured in the presence of veratridine (0.3 mM in the assay) is defined as non-specific binding. The material was incubated at 37° C. for 120 minutes. The assay conditions are carried out according to the protocol published by Pauwels, Leysen and Laduron (P. J. Pauwels, J. E. Leysen and P. M. Laduron (1986) Eur. J. Pharmacol. 124, 291-298).
(N=3, i.e. mean values±SEM from 3 independent series of experiments that were carried out in the form of triple parallel experiments).
as §1

Compound | inhibition at 1 µM (NA transporter) | inhibition in vivo at 10 mg/kg [1] | Diltiazem Binding at 10 μM [2] | BTX Binding at 10 μM [3] | other results
CN(C)C(c1ccc(Cl)cc1)C1CCCCC1(O)c1ccc(C(F)(F)F)cc1.Cl (stereo not shown) [Example 62, 2-[(4-chlorophenyl)dimethylaminomethyl]-1-(4-trifluoromethylphenyl)cyclohexanol, hydrochloride] | 80% | 94% | 83% | 93% | –
Cc1ccccc1C(C1CCCCC1(O)c1ccccc1)N(C)C.Cl (stereo not shown) [Example 66, 2-(dimethylamino-o-tolylmethyl)-1-phenylcyclohexanol, hydrochloride] | – | 91% | – | – | NA Uptake Inhibition at 1 μM (NA transporter; hydrochloride): 15%; Diltiazem Binding at 10 μM ([2]; hydrochloride): 65%; BTX Binding at 10 μM ([3]; hydrochloride): 89%
CN(C)C(c1cccc(Cl)c1)C1CCCCC1(O)Cc1ccccc1.Cl (stereo not shown) [Example 44, 1-benzyl-2-[(3-chlorophenyl)dimethylaminomethyl]cyclohexanol, hydrochloride] | 99% | 100% | 71% | 95% | –
COc1cccc(C(c2ccccc2)(C2CCCCC2(O)Cc2ccccc2)N(C)C)c1.Cl (stereo not shown) [Example 35, 1-benzyl-2-[dimethylaminophenyl-(3-methoxyphenyl)methyl]cyclohexanol, hydrochloride] | 100% | 81% | 87% | 92% | –
CN(C)C(c1cccc(Oc2ccccc2)c1)C1CCCCC1(O)Cc1ccc(C(C)(C)C)cc1.Cl (stereo not shown) [Example 64, 1-(4-tert.-butylbenzyl)-2-[dimethylamino-(3-phenoxyphenyl)methyl]cyclohexanol, hydrochloride] | 36% | 88% | 87% | 100% | –
CN(C)C(c1cccs1)C1CCCCC1(O)Cc1cccc(C(F)(F)F)c1.Cl (stereo not shown) [Example 70, 2-[dimethylaminothiophen-2-ylmethyl]-1-(3-trifluoromethylbenzyl)cyclohexanol, hydrochloride] | – | – | 91% | 93% | NA Uptake Inhibition at 1 μM (NA transporter): 74%; % Inhibition of the writhing reaction at 10 mg/kg intravenously [1]: 98%
CN(C)C(c1ccccc1Cl)C1CCCCC1(O)CCc1ccc(F)cc1.Cl (stereo not shown) [Example 69, 2-[(2-chlorophenyl)dimethylaminomethyl]-1-[2-(4-fluorophenyl)ethyl]cyclohexanol, hydrochloride] | 76% | 45% | 93% | 96% | –
CN(C)C(c1cccs1)C1CCCCC1(O)Cc1ccc(C(C)(C)C)cc1.Cl (stereo not shown) [Example 82, 1-(4-tert.-butylbenzyl)-2-[dimethylaminothiophen-2-ylmethyl]cyclohexanol, hydrochloride] | 0% | 100% | 85% | 98% | –
[^3H]-batrachlotoxin A20 α-benzoate [reference compound] | – | – | – | – | Kd ([3]; radioligand, N=3, mean±SEM, read-out: KD value for this binding site): 24.6 ± 1.56 nM
CN(C)C(c1ccccc1Cl)C1CCCCC1(O)c1ccc2ccccc2c1.Cl (stereo not shown) [Example 38, 2-[(2-chlorophenyl)dimethylaminomethyl]-1-naphthalene-2-ylcyclohexanol, hydrochloride] | 17% | 85% | 67% | 97% | –
CN(C)C(c1ccccc1)C1CC(c2ccccc2)CCC1(O)Cc1ccccc1.Cl (stereo not shown) [Example 72, 1-benzyl-2-(dimethylaminophenylmethyl)-4-phenylcyclohexanol, hydrochloride] | 64% | 89% | 97% | 99% | –
CN(C)C(c1ccccc1)C1CCCCC1(O)Cc1cccc(C(F)(F)F)c1.Cl (stereo not shown) [Example 36, 2-(dimethylaminophenylmethyl)-1-(3-trifluoromethylbenzyl)cyclohexanol, hydrochloride] | 91% | 100% | – | 98% | –
CN(C)C(c1ccccc1)C1CCCCC1(O)Cc1cccc(F)c1F.Cl (stereo not shown) [Example 57, 1-(2,3-difluorobenzyl)-2-(dimethylaminophenylmethyl)cyclohexanol, hydrochloride] | 99% | 84% | 83% | 97% | –
CN(C)C(c1ccccc1)C1CCCCC1(O)Cc1ccc(F)cc1F.Cl (stereo not shown) [Example 50, 1-(2,4-difluorobenzyl)-2-(dimethylaminophenylmethyl)cyclohexanol, hydrochloride] | 100% | 85% | 93% | 95% | –
CN(C)C(c1c(F)c(F)c(F)c(F)c1F)C1CCCCC1(O)Cc1ccccc1.Cl (stereo not shown) [Example 77, 1-benzyl-2-(dimethylaminopentafluorophenylmethyl)cyclohexanol, hydrochloride] | 27% | 54% | 27% | 56% | –
CN(C)C(c1ccc(Cl)c(Cl)c1)C1CCCCC1(O)Cc1ccc(C(C)(C)C)cc1.Cl (stereo not shown) [Example 46, 1-(4-tert.-butylbenzyl)-2-[(3,4-dichlorophenyl)dimethylaminomethyl]cyclohexanol, hydrochloride] | 35% | 68% | 93% | 96% | –
[^3H]-cis-(+)-diltiazem [reference compound] | – | – | – | – | Kd ([2]; radioligand, rat cerebral cortex, N=3, mean±SEM, read-out: KD value for this high-affinity binding site): 4.1 ± 0.75 nM
